Data: ChEMBL document CHEMBL1201862, “PubChem BioAssay data set” (2004)
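In this assay, cells in 96-well plates receive the compound at five concentrations for 48 hours. Endpoints are linearly interpolated between the surrounding concentrations. GI50: concentration for 50% inhibition of growth.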 Activity calls are given as the source filed them. Rule as the data show it: active = GI50 up to about 1.1 µM and inactive = higher.

Legend:
Experiment in all cases: NCI tumour cell line growth inhibition, 48 h
[1] = tested on: TK-10
[2] = tested on: HOP-62
[3] = tested on: PC-3
[4] = tested on: NCI-H522
[5] = tested on: MDA-MB-435
[6] = tested on: LOX IMVI
[7] = tested on: K562
[8] = tested on: IGROV-1
[9] = tested on: SW-620
[10] = tested on: SK-MEL-5
[11] = tested on: Hs-578T
[12] = tested on: KM12
[13] = tested on: SF-268
[14] = tested on: RPMI-8226
[15] = tested on: OVCAR-5
[16] = tested on: A498
[17] = tested on: OVCAR-4
[18] = tested on: A549
[19] = tested on: OVCAR-8
[20] = tested on: HCC 2998

Row | Compound | GI50 [1] | GI50 [2] | GI50 [3] | GI50 [4] | GI50 [5] | GI50 [6] | GI50 [7] | GI50 [8] | GI50 [9] | GI50 [10] | GI50 [11] | GI50 [12] | GI50 [13] | GI50 [14] | GI50 [15] | GI50 [16] | GI50 [17] | GI50 [18] | GI50 [19] | GI50 [20]
1 | Cc1cc(N2CCN(C)CC2)n2nc(-c3ccc(Cl)cc3)nc2n1 | 68.1 µM (inactive) | > 100 µM (inactive) | > 100 µM (inactive) | 84.7 µM (inactive) | > 100 µM (inactive) | 61.1 µM (inactive) | 60.4 µM (inactive) | > 100 µM (inactive) | > 100 µM (inactive) | 50.2 µM (inactive) | > 100 µM (inactive) | > 100 µM (inactive) | > 100 µM (inactive) | 56.5 µM (inactive) | > 100 µM (inactive) | 43.3 µM (inactive) | > 100 µM (inactive) | > 100 µM (inactive) | > 100 µM (inactive) | 
2 | COC(C)(C)C1=CCC(C)CC1 (stereo not given) | > 100 µM (inactive) | > 100 µM (inactive) | > 100 µM (inactive) | > 100 µM (inactive) | > 100 µM (inactive) |  |  | > 100 µM (inactive) | > 100 µM (inactive) | > 100 µM (inactive) | > 100 µM (inactive) | > 100 µM (inactive) | > 100 µM (inactive) | > 100 µM (inactive) | > 100 µM (inactive) | > 100 µM (inactive) | > 100 µM (inactive) | > 100 µM (inactive) | > 100 µM (inactive) | > 100 µM (inactive)
3 | O=C1CN(c2ccc(Cl)cc2)C(=O)CN1NCNN1CC(=O)N(c2ccc(Cl)cc2)CC1=O | > 100 µM (inactive) | > 100 µM (inactive) | > 100 µM (inactive) | > 100 µM (inactive) | > 100 µM (inactive) |  |  | > 100 µM (inactive) | > 100 µM (inactive) | > 100 µM (inactive) | > 100 µM (inactive) | > 100 µM (inactive) | > 100 µM (inactive) | > 100 µM (inactive) | > 100 µM (inactive) | > 100 µM (inactive) | > 100 µM (inactive) | > 100 µM (inactive) | > 100 µM (inactive) | > 100 µM (inactive)
4 | C=C(C)C1CC2(C)C(C)CC(O)CC2C(OC(=O)C=C(C)C)C1O (stereo not given) | 49.2 µM (inactive) |  | 37.6 µM (inactive) | 24.3 µM (inactive) | 38.1 µM (inactive) | 55 µM (inactive) | 32.8 µM (inactive) | 40.5 µM (inactive) | > 10 µM (inactive) | 19.2 µM (inactive) | 27.1 µM (inactive) | 33.7 µM (inactive) | 23.7 µM (inactive) |  | 31.3 µM (inactive) | 65.5 µM (inactive) | 29.5 µM (inactive) | 29.4 µM (inactive) | 40.6 µM (inactive) | 43.8 µM (inactive)
5 | Cc1cc(-c2ccc(C(=O)C(c3ccccc3)(c3ccccc3)c3ccccc3)[nH]2)on1 |  | 17.1 µM (inactive) | 15.2 µM (inactive) |  | 20.1 µM (inactive) | 19.5 µM (inactive) | 32 µM (inactive) | 16.9 µM (inactive) | 19.8 µM (inactive) | 12.7 µM (inactive) | 19.2 µM (inactive) | 15.6 µM (inactive) | 18.7 µM (inactive) | 14.4 µM (inactive) | 23.8 µM (inactive) | 37.1 µM (inactive) | 32.3 µM (inactive) | 12 µM (inactive) | 17.5 µM (inactive) | 11.2 µM (inactive)
6 | COC(=O)c1cncc2c1CC1C3(C(=O)OC)C=NC(C4C(CO)=CCC43)C21C (stereo not given) | > 100 µM (inactive) | > 100 µM (inactive) | > 100 µM (inactive) | > 100 µM (inactive) | > 100 µM (inactive) | > 100 µM (inactive) |  | > 100 µM (inactive) | > 100 µM (inactive) | > 100 µM (inactive) | > 100 µM (inactive) | > 100 µM (inactive) | > 100 µM (inactive) |  | > 100 µM (inactive) | > 100 µM (inactive) | > 100 µM (inactive) | > 100 µM (inactive) | > 100 µM (inactive) | > 100 µM (inactive)
7 | S=C(N/N=C(/c1ccccc1)c1ccccn1)N1CCCCC1 | 0.114 µM (active) | 0.0785 µM (active) | < 0.0151 µM (active) | < 0.0344 µM (active) | 0.134 µM (active) |  | < 0.0161 µM (active) | < 0.0164 µM (active) | < 0.0226 µM (active) | < 0.0249 µM (active) | 0.237 µM (active) | < 0.0292 µM (active) |  | < 0.0202 µM (active) | 0.0455 µM (active) | 0.407 µM (active) | 1.5 µM (inactive) | < 0.0302 µM (active) | < 0.0281 µM (active) | 0.219 µM (active)
8 | Cc1csc2[n+]1C(=O)/C(=C\c1ccc([N+](=O)[O-])cc1)S2 | 25.2 µM (inactive) | 28.5 µM (inactive) | 25.4 µM (inactive) |  | 24.9 µM (inactive) | 22.5 µM (inactive) | 26.8 µM (inactive) |  | 40.8 µM (inactive) | 26.2 µM (inactive) | 25.6 µM (inactive) | 20.5 µM (inactive) | 20.3 µM (inactive) | 16.6 µM (inactive) | 47.2 µM (inactive) | 22.7 µM (inactive) | 42.3 µM (inactive) | 27.4 µM (inactive) | 22.4 µM (inactive) | 21.6 µM (inactive)
9 | c1ccc2c(c1)[nH]c1nc3cc(-c4ccc5nc6c(nc5c4)[nH]c4ccccc46)ccc3nc12 | > 100 µM (inactive) | > 93.5 µM (inactive) | > 100 µM (inactive) | 5.42 µM (inactive) | > 100 µM (inactive) | > 39.9 µM (inactive) |  | > 100 µM (inactive) | > 100 µM (inactive) | 54.1 µM (inactive) | > 100 µM (inactive) | > 100 µM (inactive) | > 100 µM (inactive) | 38 µM (inactive) | > 100 µM (inactive) | > 100 µM (inactive) | > 100 µM (inactive) | > 100 µM (inactive) | > 100 µM (inactive) | > 79.1 µM (inactive)
10 | CC1(C)OC1COc1c2occc2cc2ccc(=O)oc12 (stereo not given) |  | > 100 µM (inactive) | > 100 µM (inactive) | > 100 µM (inactive) | > 100 µM (inactive) | > 100 µM (inactive) | > 100 µM (inactive) | > 100 µM (inactive) | > 100 µM (inactive) | 86.3 µM (inactive) | > 100 µM (inactive) | > 100 µM (inactive) | > 100 µM (inactive) | 39.2 µM (inactive) | > 100 µM (inactive) | > 100 µM (inactive) | > 100 µM (inactive) | 67.6 µM (inactive) | 60.5 µM (inactive) | > 100 µM (inactive)
11 | CON(C)C(=O)C(C)NC(=O)OCc1ccccc1 (stereo not given) | > 100 µM (inactive) | > 100 µM (inactive) | > 100 µM (inactive) |  | > 100 µM (inactive) |  | > 100 µM (inactive) | > 100 µM (inactive) | > 100 µM (inactive) | > 100 µM (inactive) | > 100 µM (inactive) | > 100 µM (inactive) | > 100 µM (inactive) | > 100 µM (inactive) | > 100 µM (inactive) | > 100 µM (inactive) |  | > 100 µM (inactive) | > 100 µM (inactive) | > 100 µM (inactive)
